From US20170042890A1, “METHODS OF REDUCING DECLINE IN VITAL CAPACITY” (Cytokinetics, Inc., priority 2014, published 2017)

Assays:
cardiac muscle troponin = details: cited from earlier work
patients with ALS [1] = assay: BENEFIT-ALS clinical trial: ALSFRS-R total score; format: in vivo, human; details: Modified FAS
Protocol: (§1) BENEFIT-ALS was a multi-national, randomized, stratified, double-blind, placebo-controlled, parallel-group study of tirasemtiv in patients with ALS. The study consisted of a screening period, an open-label/lead-in period, and a double-blind treatment period. Following screening, eligible patients received open-label tirasemtiv, 125 mg BID, for 7 days. Patients who tolerated the 7-day lead-in period were randomized in a 1:1 ratio to tirasemtiv or placebo. Over the first 3 weeks of double-blind treatment, patients randomized to tirasemtiv had their TDD up-titrated as follows: 250 mg for 7 days, then 375 mg for 7 days, then 500 mg for 7 days. […] However, in such cases, dose escalation was re-attempted at least one additional time. The highest tolerable tirasemtiv dose for each individual patient was the dose that patient received for the remaining 9 weeks (i.e., the maximum tolerated dose [MTD] phase) of the study. Patients randomized to placebo underwent a corresponding dummy dose titration.
Randomization was stratified by riluzole use. […] Clinical assessments occurred every 4 weeks during double-blind treatment; patients also returned for follow-up evaluations at 1 and 4 weeks after their final dose of double-blind study medication (FIG. 1). […]
Eligible patients were males and females, 18 years of age and older, with a diagnosis of familial or sporadic ALS and meeting the World Federation of Neurology El Escorial criteria of definite ALS, probable ALS, laboratory-supported probable ALS, or possible ALS. Patients were to have an upright SVC>50% of predicted for age, height, and sex, a diminished, but measurable, maximum voluntary grip strength in at least one hand (i.e., between 10-50 pounds for females and 10-70 pounds for males), and at least 4 of the 12 ALSFRS-R questions were to have been scored as a 2 or 3. […]
Safety data presented were based on the safety analysis set, defined as all patients who received at least 1 dose of double-blind study drug. […] Data for the primary and secondary efficacy endpoints were analyzed with the Modified FAS. […]

CYP 1A2 = target: T1, CYP 1A2 (Homo sapiens, UniProt P05177); details: cited from earlier work
T1 sequence (P05177 1-516): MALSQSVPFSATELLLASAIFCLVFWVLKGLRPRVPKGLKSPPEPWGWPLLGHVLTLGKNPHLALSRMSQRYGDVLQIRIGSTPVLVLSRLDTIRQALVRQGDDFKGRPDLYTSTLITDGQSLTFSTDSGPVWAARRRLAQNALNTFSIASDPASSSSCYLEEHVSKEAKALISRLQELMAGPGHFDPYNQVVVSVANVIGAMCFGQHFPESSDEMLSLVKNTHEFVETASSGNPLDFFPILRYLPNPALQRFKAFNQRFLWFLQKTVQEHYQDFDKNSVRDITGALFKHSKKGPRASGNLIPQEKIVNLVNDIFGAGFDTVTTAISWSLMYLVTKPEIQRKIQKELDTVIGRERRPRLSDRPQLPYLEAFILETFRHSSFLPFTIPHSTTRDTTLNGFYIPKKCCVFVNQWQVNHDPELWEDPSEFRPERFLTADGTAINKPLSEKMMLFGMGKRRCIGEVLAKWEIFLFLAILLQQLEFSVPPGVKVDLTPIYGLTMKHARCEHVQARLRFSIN

[2] = test system: fast skeletal muscle troponin complex; details: cited from earlier work
patients with ALS [3] = assay: BENEFIT-ALS clinical trial: Sniff Nasal Inspiratory Pressure (SNIP); format: in vivo, human
Protocol: as §1
(§2) Randomization was stratified by riluzole use. […] Clinical assessments occurred every 4 weeks during double-blind treatment; patients also returned for follow-up evaluations at 1 and 4 weeks after their final dose of double-blind study medication (FIG. 1).
(§3) The secondary objectives included assessments of the effect of tirasemtiv versus placebo on measures of respiratory function (Maximum Voluntary Ventilation (MVV), Sniff Nasal Inspiratory Pressure (SNIP), SVC) and skeletal muscle function including handgrip fatigue and muscle-strength mega-score (i.e., the average z-score for muscle strength measurements across the following tested bilateral muscle groups: elbow flexion, wrist extension, knee extension, ankle dorsiflexion, and handgrip)). Secondary endpoints included the changes from baseline in each of the above mentioned measures (MVV, SNIP, SVC, and muscle-strength mega-score) for the Modified FAS, and the slope of each of the measures from baseline to Week 12 for the Modified FAS.
(§4) Eligible patients were males and females, 18 years of age and older, with a diagnosis of familial or sporadic ALS and meeting the World Federation of Neurology El Escorial criteria of definite ALS, probable ALS, laboratory-supported probable ALS, or possible ALS. Patients were to have an upright SVC>50% of predicted for age, height, and sex, a diminished, but measurable, maximum voluntary grip strength in at least one hand (i.e., between 10-50 pounds for females and 10-70 pounds for males), and at least 4 of the 12 ALSFRS-R questions were to have been scored as a 2 or 3. Patients were to be able to swallow tablets without crushing, and in the opinion of the investigator, were expected to do so for the duration of the study. If the patient needed a caregiver, the caregiver was to be able to observe the patient's status. Clinical laboratory results were to be either within their respective normal ranges or if outside the normal range, deemed not clinically significant by the investigator. […] Patients not taking riluzole prior to study entry were not permitted to take riluzole at any dose during the course of the study.
(§5) Safety data presented were based on the safety analysis set, defined as all patients who received at least 1 dose of double-blind study drug. Of the 605 randomized patients, 596 (295 placebo, 301 tirasemtiv) received at least 1 dose of double-blind study drug and were included in the safety analysis set. Data for the primary and secondary efficacy endpoints were analyzed with the Modified FAS. This analysis set included all patients who received at least 1 dose of double-blind study drug and had at least 1 efficacy assessment during the double-blind treatment period, and excluded 156 patients who were randomized in blocks containing patients affected by a study drug assignment error in which 58 patients randomized to and treated with double-blind tirasemtiv were dispensed double-blind placebo instead. […]

patients with ALS [4] = assay: BENEFIT-ALS clinical trial: Maximum Voluntary Ventilation (MVV); format: in vivo, human
Protocol: as §1, §2, §3, §4, §5

## C#Cc1cnc2nc(O)n(C(CC)CC)c2n1 [Tirasemtiv, 6-ethynyl-1-(pentan-3-yl)-1H-imidazo[4,5-b]pyrazin-2(3H)one]
Cardiac muscle troponin
  Effect on cardiac muscle troponin: no effect
Patients with ALS [1]; Visits 6 and 7
  ALSFRS total score change versus placebo, in words: not statistically different between treatment groups
Patients with ALS [1]; Visits 6 and 7, 95% CI −1.30, 0.14, p=0.114
  LS mean±SE difference between treatment groups (tirasemtiv response minus placebo response) in ALSFRS total score change: −0.58±0.366
Patients with ALS [1]; after approx. 8 and 12 weeks double-blind, tirasemtiv BID up to 500 mg/day
  LS mean change from baseline to the average of ALSFRS total score at Visits 6 and 7: −2.98
CYP 1A2
  Effect on CYP 1A2: inhibited
[2]
  Activity on fast skeletal muscle troponin complex: highly selective activator
  Rate of calcium release from fast skeletal TnC: slows the rate of calcium release
Patients with ALS [3]; Modified FAS N=178
  SNIP slope from baseline to Week 12: −0.053
Patients with ALS [3]; Week 4, Modified FAS N=178
  SNIP change from baseline (LS mean): −4.33 cm H2O
Patients with ALS [3]; Week 8, Modified FAS N=178
  SNIP change from baseline (LS mean): −3.55 cm H2O
Patients with ALS [3]; Week 12, Modified FAS N=178
  SNIP change from baseline (LS mean): −5.03 cm H2O
Patients with ALS [3]; p=0.012 and 0.050
  SNIP versus placebo, in words: statistically significantly greater decrease in SNIP at Weeks 4 and 8
Patients with ALS [3]; p=0.2108
  SNIP difference in slope (tirasemtiv vs placebo): −0.0312
Patients with ALS [4]; Modified FAS N=178
  MVV slope from baseline to Week 12: −0.0567
Patients with ALS [4]; Week 4, Modified FAS N=178
  MVV change from baseline (LS mean): -2.89 L/min
Patients with ALS [4]; Week 8, Modified FAS N=178
  MVV change from baseline (LS mean): -2.14 L/min
Patients with ALS [4]; Week 12, Modified FAS N=178
  MVV change from baseline (LS mean): -5.45 L/min
Patients with ALS [4]; human, in vivo
  MVV versus placebo, in words: no statistically significant difference between treatment groups
Patients with ALS [4]; p=0.8799
  MVV difference in slope (tirasemtiv vs placebo): 0.0044
